Measurements taken from PMC10958470 (Virus Research, 2024).
“Also recorded” adds a separate entry of the source. Like-named read-outs stand apart in the source and are kept apart here.

Columns and labels:
[1] = biological target: SARS-CoV-2 RdRp nsp12/7/8 complex (Severe acute respiratory syndrome coronavirus 2, UniProt P0DTD1); experiment: biochemical; type: biochemical; details: for IC50: RdRp IC50 [µM]; for inhibition at 20 µM: read-out: RdRp Inhibition [%] 20 µM (PS Inhibition RdRp [%])
[2] = biological target: SARS-CoV-2 helicase (nsp13) (Severe acute respiratory syndrome coronavirus 2, UniProt P0DTD1); experiment: biochemical; type: biochemical; details: for inhibition at 2.5 µM: read-out: DTT Helicase unwinding inhibition [%] 2.5 µM triplicates
RdRp complex = RdRp complex (Severe acute respiratory syndrome coronavirus 2, UniProt P0DTD1); type: binding, SARS-CoV-2
GTPase dynamin = details: read-out: IC50 GTPase dynamin; ref Medchemexpress, 2023; cited from earlier work
[3] = biological target: SARS-CoV-2 nsp13 NTPase activity (Severe acute respiratory syndrome coronavirus 2, UniProt P0DTD1); experiment: biochemical; type: biochemical
SARS-CoV-2 helicase = SARS-CoV-2 helicase (Severe acute respiratory syndrome coronavirus 2, UniProt P0DTD1); type: binding
SARS-CoV-2 RdRp = details: biochemical readout; ref Yin et al., 2021; cited from earlier work
[4] = read-out: Helicase Inhibition [%] 20 µM (PS Inhibition Helicase [%])

Compound	change of RdRp IC50 with increasing ATP concentration [1]	change of RdRp IC50 with increasing oligo-U concentration [1]	IC50 [1]	inhibition at 20 µM [1]	inhibition at 20 µM [2, 4]	PicoGreen effect [%] 20 µM (annealed dsDNA substrate)	RdRp Tm °C 20 µM (RdRp complex)	RdRp Tm °C 100 µM (RdRp complex)	effect on RdRp melting temperature (RdRp complex)	DTT nsp13 inhibition [%] 20 µM (DTT HC Helicase inhibition [%]) [2]	inhibition at 2.5 µM [2]	DTT Helicase ATPase activity PLUS DNA substrate 2 µM [3]	DTT Helicase ATPase activity [%] 2 µM [3]	Helicase Tm °C 20 µM (SARS-CoV-2 helicase)	Helicase Tm °C 100 µM (SARS-CoV-2 helicase)	effect on helicase Tm (SARS-CoV-2 helicase)	also measured
O=C(N/N=C/c1ccc(O)c(O)c1)c1cc2ccccc2cc1O [dynasore]	did not detect any change	gain of potency in the presence of 3 µM oligo-U	6.22 µM	96.1%	7.02%	6.63%	43.3 °C	44.5 °C	concentration-dependent protein stabilizing effect								increase of Tm of RdRp (RdRp complex): about 1.5 K; IC50 (GTPase dynamin): 15 µM
O=c1c(O)c(-c2ccc(O)c(O)c2)oc2cc(O)ccc12 [fisetin (fustel), fisetin]			2.17 µM	95.8%	39.3%	4.99%	42.7 °C	43.5 °C									
O=c1c(O)c(-c2cc(O)c(O)c(O)c2)oc2cc(O)cc(O)c12 [myricetin (cannabiscetin), myricetin]					100%		42.7 °C	43.6 °C	no shift in Tm	67.25%	22.1%	77.50	62.36%	38.3 °C	38.8 °C	did not result in a Tm change	inhibition at 20 µM ([2]; read-out: DTT nsp13 inhibition [%] 20 µM (DTT HC Helicase inhibition [%])): > 50%
Cc1ccc(C(=O)Nc2ccc(S(=O)(=O)O)c3cc(S(=O)(=O)O)cc(S(=O)(=O)O)c23)cc1NC(=O)c1cccc(NC(=O)Nc2cccc(C(=O)Nc3cc(C(=O)Nc4ccc(S(=O)(=O)O)c5cc(S(=O)(=O)O)cc(S(=O)(=O)O)c45)ccc3C)c2)c1 [suramin hexasodium]	no changes in IC50	no changes in IC50	0.24 µM		98%		44.3 °C	46.6 °C	increase in melting temperature; also recorded: concentration-dependent protein stabilizing effect	92.60%	53.1%	63.38	121.61%	36.8 °C	36.5 °C	decrease in Tm	RdRp Inhibition [%] 20 µM (PS Inhibition RdRp [%]) [1]: 98.49%; IC50 ([2]; DTT Helicase IC50 [µM]): 5.42 µM; inhibition of helicase NTPase activity, 2 mM DTT [3]: only active in presence of dsDNA substrate; inhibition of helicase NTPase activity, absence of DTT [3]: showed inhibition in absence of DTT, independent of the presence of the dsDNA substrate; fold stronger inhibition of SARS-CoV-2 RdRp compared to Remdesivir (SARS-CoV-2 RdRp): 20 fold
